Results reported in ChEMBL document CHEMBL1132933, “Protease inhibitors: synthesis and QSAR study of novel classes of nonbasic thrombin inhibitors incorporating sulfonylguanidine and O-methylsulfonylisourea moieties at P1” (J Med Chem, 2000).

The compounds below were run against Trypsin (Homo sapiens, UniProt P07477+P07478+P35030) (assay: Inhibitory activity against human trypsin (using Chromozym TH as the substrate)).
Format: protein assay

| Ki | Compound |
| --- | --- |
| 2150 nM | COC(=N)NS(=O)(=O)c1ccc(C)cc1 |
| 1450 nM | Cc1cc(C)c(S(=O)(=O)N=C(N)N)c(C)c1 |
| 1425 nM | COC(=N)NS(=O)(=O)c1cccc2ccccc12 |
| 980 nM | CC1(C)C2CCC1(CS(=O)(=O)N=C(N)N)C(=O)C2 (stereo unspecified) |
| 1540 nM | COC(=N)NS(=O)(=O)c1ccc(NC(=O)CNC(=O)[C@@H]2CCCN2C(=O)NS(=O)(=O)c2ccc(C)cc2)cc1 |
| 1230 nM | N=C(N)NS(=O)(=O)c1cccc2ccccc12 |
| 1900 nM | COC(=N)NS(=O)(=O)Cc1ccccc1 |
| 1320 nM | COc1ccc(S(=O)(=O)N=C(N)N)cc1 |
| 1350 nM | COC(=N)NS(=O)(=O)c1ccc(/N=N/c2ccc(N(C)C)cc2)cc1 |
| 1370 nM | COC(=N)NS(=O)(=O)c1cccc(N)c1 |
| 1350 nM | Cc1ccc(S(=O)(=O)NC(=O)NCCC(=O)N[C@@H](Cc2c[nH]cn2)C(=O)Nc2ccc(S(=O)(=O)N=C(N)N)cc2)cc1 |
| 1235 nM | N=C(N)NNS(=O)(=O)c1cccc([N+](=O)[O-])c1 |
| 1455 nM | Cc1ccc(S(=O)(=O)NC(=O)NCC(=O)N[C@@H](Cc2c[nH]cn2)C(=O)Nc2ccc(S(=O)(=O)N=C(N)N)cc2)cc1 |
| 1235 nM | COC(=N)NS(=O)(=O)c1ccc(OC)c(N)c1 |
| 1070 nM | CC(=O)Nc1ccc(S(=O)(=O)N=C(N)N)cc1 |
| 1170 nM | N=C(N)NS(=O)(=O)c1ccc(Cl)cc1 |
| 1350 nM | N=C(N)NS(=O)(=O)c1ccc(I)cc1 |
| 1400 nM | N=C(N)NNS(=O)(=O)c1cccc(N)c1 |
| 1555 nM | Cc1ccc(S(=O)(=O)NC(=O)NCC(=O)N[C@@H](Cc2c[nH]cn2)C(=O)Nc2ccc(S(=O)(=O)NN=C(N)N)cc2)cc1 |
| 1390 nM | Cc1ccc(S(=O)(=O)NC(=O)NCCC(=O)N[C@@H](Cc2c[nH]cn2)C(=O)Nc2ccc(S(=O)(=O)NN=C(N)N)cc2)cc1 |
| 1200 nM | CN(C)c1cccc2c(S(=O)(=O)NN=C(N)N)cccc12 |

| Ki | Compound |
| --- | --- |
| 975 nM | N=C(N)NS(=O)(=O)c1ccc([N+](=O)[O-])cc1 |
| 1235 nM | COC(=N)NS(=O)(=O)c1ccc([N+](=O)[O-])cc1 |
| 2135 nM | COC(=N)NS(=O)(=O)C(F)(F)C(F)(F)C(F)(F)C(F)(F)C(F)(F)C(F)(F)C(F)(F)C(F)(F)F |
| 1785 nM | COC(=N)NS(=O)(=O)c1c(C)cc(C)cc1C |
| 1090 nM | N=C(N)NS(=O)(=O)c1ccc(F)cc1 |
| 1320 nM | N=C(N)NS(=O)(=O)c1cccs1 |
| 1320 nM | COC(=N)NS(=O)(=O)c1ccc(NC(=O)[C@@H](Cc2ccccc2)NC(=O)NS(=O)(=O)c2ccc(C)cc2)cc1 |
| 1335 nM | N=C(N)NNS(=O)(=O)c1ccc(C(=O)O)cc1 |
| 1025 nM | N=C(N)NNS(=O)(=O)c1ccc(F)cc1 |
| 1250 nM | N=C(N)NS(=O)(=O)c1c(Br)c(Br)c(Br)c(Br)c1C(=O)O |
| 1420 nM | N=C(N)NS(=O)(=O)c1cc(Cl)cc(Cl)c1O |
| 1250 nM | Cc1ccc(S(=O)(=O)NC(=O)N[C@H](Cc2ccccc2)C(=O)Nc2ccc(S(=O)(=O)N=C(N)N)cc2)cc1 |
| 1315 nM | Cc1ccc(S(=O)(=O)NC(=O)N[C@@H](Cc2ccccc2)C(=O)N2CCCC2C(=O)Nc2ccc(S(=O)(=O)N=C(N)N)cc2)cc1 (stereo partly specified) |
| 1230 nM | N=C(N)NS(=O)(=O)c1ccc(Br)cc1 |
| 1345 nM | COC(=N)NS(=O)(=O)c1ccc(NC(C)=O)cc1 |
| 1420 nM | COC(=N)NS(=O)(=O)c1ccc(NC(=O)[C@H](Cc2c[nH]cn2)NC(=O)CCNC(=O)NS(=O)(=O)c2ccc(C)cc2)cc1 |
| 1355 nM | CN(C)c1ccc(/N=N/c2ccc(S(=O)(=O)NN=C(N)N)cc2)cc1 |
| 1350 nM | N=C(N)NS(=O)(=O)c1c(F)c(F)c(F)c(F)c1F |
| 1425 nM | COC(=N)NS(=O)(=O)c1ccc(NC(=O)[C@@H](Cc2ccccc2)NC(=O)OCc2ccccc2)cc1 |
| 3300 nM | COC(=N)NS(=O)(=O)N(C)C |

| Compound | Ki |
| --- | --- |
| N=C(N)NS(=O)(=O)c1ccc(NC(=O)C2CCCN2C(=O)[C@H](Cc2ccccc2)NC(=O)OCc2ccccc2)cc1 (stereo partly specified) | 1360 nM |
| N=C(N)NNS(=O)(=O)c1ccc(Br)cc1 | 1215 nM |

These compounds were tested against Prothrombin (Homo sapiens, UniProt P00734) (assay: Inhibitory activity against human thrombin (using Chromozym TH as the substrate)).

| Ki | Compound |
| --- | --- |
| 328 nM | COC(=N)NS(=O)(=O)c1ccc(C)cc1 |
| 255 nM | Cc1cc(C)c(S(=O)(=O)N=C(N)N)c(C)c1 |
| 154 nM | COC(=N)NS(=O)(=O)c1cccc2ccccc12 |
| 320 nM | CC1(C)C2CCC1(CS(=O)(=O)N=C(N)N)C(=O)C2 (stereo unspecified) |
| 27 nM | COC(=N)NS(=O)(=O)c1ccc(NC(=O)CNC(=O)[C@@H]2CCCN2C(=O)NS(=O)(=O)c2ccc(C)cc2)cc1 |
| 136 nM | N=C(N)NS(=O)(=O)c1cccc2ccccc12 |
| 450 nM | COC(=N)NS(=O)(=O)Cc1ccccc1 |
| 240 nM | COc1ccc(S(=O)(=O)N=C(N)N)cc1 |
| 169 nM | COC(=N)NS(=O)(=O)c1ccc(/N=N/c2ccc(N(C)C)cc2)cc1 |
| 99 nM | COC(=N)NS(=O)(=O)c1cccc(N)c1 |
| 15 nM | Cc1ccc(S(=O)(=O)NC(=O)NCCC(=O)N[C@@H](Cc2c[nH]cn2)C(=O)Nc2ccc(S(=O)(=O)N=C(N)N)cc2)cc1 |
| 170 nM | N=C(N)NNS(=O)(=O)c1cccc([N+](=O)[O-])c1 |
| 18 nM | Cc1ccc(S(=O)(=O)NC(=O)NCC(=O)N[C@@H](Cc2c[nH]cn2)C(=O)Nc2ccc(S(=O)(=O)N=C(N)N)cc2)cc1 |
| 96 nM | COC(=N)NS(=O)(=O)c1ccc(OC)c(N)c1 |
| 195 nM | CC(=O)Nc1ccc(S(=O)(=O)N=C(N)N)cc1 |
| 225 nM | N=C(N)NS(=O)(=O)c1ccc(Cl)cc1 |
| 210 nM | N=C(N)NS(=O)(=O)c1ccc(I)cc1 |
| 88 nM | N=C(N)NNS(=O)(=O)c1cccc(N)c1 |
| 15 nM | Cc1ccc(S(=O)(=O)NC(=O)NCC(=O)N[C@@H](Cc2c[nH]cn2)C(=O)Nc2ccc(S(=O)(=O)NN=C(N)N)cc2)cc1 |
| 10 nM | Cc1ccc(S(=O)(=O)NC(=O)NCCC(=O)N[C@@H](Cc2c[nH]cn2)C(=O)Nc2ccc(S(=O)(=O)NN=C(N)N)cc2)cc1 |
| 130 nM | CN(C)c1cccc2c(S(=O)(=O)NN=C(N)N)cccc12 |

| Ki | Compound |
| --- | --- |
| 180 nM | N=C(N)NS(=O)(=O)c1ccc([N+](=O)[O-])cc1 |
| 189 nM | COC(=N)NS(=O)(=O)c1ccc([N+](=O)[O-])cc1 |
| 403 nM | COC(=N)NS(=O)(=O)C(F)(F)C(F)(F)C(F)(F)C(F)(F)C(F)(F)C(F)(F)C(F)(F)C(F)(F)F |
| 348 nM | COC(=N)NS(=O)(=O)c1c(C)cc(C)cc1C |
| 240 nM | N=C(N)NS(=O)(=O)c1ccc(F)cc1 |
| 185 nM | N=C(N)NS(=O)(=O)c1cccs1 |
| 60 nM | COC(=N)NS(=O)(=O)c1ccc(NC(=O)[C@@H](Cc2ccccc2)NC(=O)NS(=O)(=O)c2ccc(C)cc2)cc1 |
| 97 nM | N=C(N)NNS(=O)(=O)c1ccc(C(=O)O)cc1 |
| 225 nM | N=C(N)NNS(=O)(=O)c1ccc(F)cc1 |
| 225 nM | N=C(N)NS(=O)(=O)c1c(Br)c(Br)c(Br)c(Br)c1C(=O)O |
| 152 nM | N=C(N)NS(=O)(=O)c1cc(Cl)cc(Cl)c1O |
| 43 nM | Cc1ccc(S(=O)(=O)NC(=O)N[C@H](Cc2ccccc2)C(=O)Nc2ccc(S(=O)(=O)N=C(N)N)cc2)cc1 |
| 12 nM | Cc1ccc(S(=O)(=O)NC(=O)N[C@@H](Cc2ccccc2)C(=O)N2CCCC2C(=O)Nc2ccc(S(=O)(=O)N=C(N)N)cc2)cc1 (stereo partly specified) |
| 220 nM | N=C(N)NS(=O)(=O)c1ccc(Br)cc1 |
| 202 nM | COC(=N)NS(=O)(=O)c1ccc(NC(C)=O)cc1 |
| 19 nM | COC(=N)NS(=O)(=O)c1ccc(NC(=O)[C@H](Cc2c[nH]cn2)NC(=O)CCNC(=O)NS(=O)(=O)c2ccc(C)cc2)cc1 |
| 139 nM | CN(C)c1ccc(/N=N/c2ccc(S(=O)(=O)NN=C(N)N)cc2)cc1 |
| 146 nM | N=C(N)NS(=O)(=O)c1c(F)c(F)c(F)c(F)c1F |
| 62 nM | COC(=N)NS(=O)(=O)c1ccc(NC(=O)[C@@H](Cc2ccccc2)NC(=O)OCc2ccccc2)cc1 |
| 1360 nM | COC(=N)NS(=O)(=O)N(C)C |

| Compound | Ki |
| --- | --- |
| N=C(N)NS(=O)(=O)c1ccc(NC(=O)C2CCCN2C(=O)[C@H](Cc2ccccc2)NC(=O)OCc2ccccc2)cc1 (stereo partly specified) | 13 nM |
| N=C(N)NNS(=O)(=O)c1ccc(Br)cc1 | 203 nM |
